Laboratory results taken from US8324248B2, “Piperidine derivatives as NK3 receptor antagonists” (Hoffmann-La Roche Inc., priority 2009, dated 2012).

Experiments:
[1] = target: T1, recombinant human NK3 receptor (Homo sapiens, UniProt P29371); test: [3H]SR142801 competition binding assay, hNK3 receptor binding; conditions: [3H]SR142801 displacement; membranes from HEK293 cells transiently expressing recombinant human NK3 receptor; Ki by Cheng-Prussoff from IC50
T1 construct: expressed in transfected cells; host or cells: HEK293 cells (transient expression), membranes
T1 sequence (P29371 1-465): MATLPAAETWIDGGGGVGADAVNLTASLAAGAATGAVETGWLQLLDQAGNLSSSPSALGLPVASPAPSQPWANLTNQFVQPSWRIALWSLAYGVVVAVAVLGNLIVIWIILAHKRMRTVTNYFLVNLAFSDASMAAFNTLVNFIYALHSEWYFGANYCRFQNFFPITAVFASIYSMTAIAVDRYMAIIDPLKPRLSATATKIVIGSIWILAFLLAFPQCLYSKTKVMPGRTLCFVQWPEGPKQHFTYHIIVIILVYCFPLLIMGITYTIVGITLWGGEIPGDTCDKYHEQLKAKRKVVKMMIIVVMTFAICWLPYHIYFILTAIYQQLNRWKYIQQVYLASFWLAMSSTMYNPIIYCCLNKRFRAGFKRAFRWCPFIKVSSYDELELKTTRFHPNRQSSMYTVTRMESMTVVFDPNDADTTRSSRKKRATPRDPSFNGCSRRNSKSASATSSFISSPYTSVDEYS
Method: The compounds were investigated in accordance with the tests given hereinafter. [^3H]SR142801 competition binding assay hNK3 receptor binding experiment were performed using [^3H]SR142801 (Catalog No. TRK1035, specific activity: 74.0 Ci/mmol, Amersham, GE Healthcare UK limited, Buckinghamshire, UK) and membrane isolated from HEK293 cells transiently expressing recombinant human NK3 receptor. After thawing, the membrane homogenates were centrifuged at 48,000×g for 10 min at 4° C., the pellets were resuspended in the 50 mM Tris-HCl, 4 mM MnCl2, 1 μM phosphoramidon, 0.1% BSA binding buffer at pH 7.4 to a final assay concentration of 5 μg protein/well. For inhibition experiments, membranes were incubated with [^3H]SR142801 at a concentration equal to KD value of radioligand and 10 concentrations of the inhibitory compound (0.0003-10 μM) (in a total reaction volume of 500 μl) for 75 min at room temperature (RT). At the end of the incubation, membranes were filtered onto unitfilter (96-well white microplate with bonded GF/C filter preincubated 1 h in 0.3% PEI+0.3% BSA, Packard BioScience, Meriden, Conn.) with a Filtermate 196 harvester (Packard BioScience) and washed 4 times with ice-cold 50 mM Tris-HCl, pH 7.4 buffer. Nonspecific binding was measured in the presence of 10 μM SB222200 for both radioligands. The radioactivity on the filter was counted (5 min) on a Packard Top-count microplate scintillation counter with quenching correction after addition of 45 μl of microscint 40 (Can berra Packard S. A., Zürich, Switzerland) and shaking for 1 h. Inhibition curves were fitted according to the Hill equation: y=100/(1+(x/IC50)^nH), where nH=slope factor using Excel-fit 4 software (Microsoft). IC50 values were derived from the inhibition curve and the affinity constant (Ki) values were calculated using the Cheng-Prussoff equation Ki=IC50/(1+[L]/KD) where [L] is the concentration of radioligand and KD is its dissociation constant at the receptor, derived from the saturation isotherm. All experiments were performed in duplicate and the mean±standard error (SEM) of the individual Ki values was calculated.

[2] = phase II trial, cited from earlier work

C[C@H](Oc1ccc(C#N)cn1)[C@H]1CCN(C(=O)c2ccc(-c3ccc(F)cc3)cc2)C[C@@H]1c1ccc(Cl)cc1 [Example 29, 6-{(8)-1-[(3S,4S)-3-(4-Chloro-phenyl)-1-(4′-fluoro-biphenyl-4-carbonyl)-piperidin-4-yl]-ethoxy}-nicotinonitrile]
Ki [1]: 7.7 nM

Cc1cc(C(=O)N2CC[C@H]([C@H](C)Oc3ccc(C(F)(F)F)cn3)[C@@H](c3ccc(Cl)cc3)C2)cnn1 [Example 17, {(3S,4S)-3-(4-Chloro-phenyl)-4-[(S)-1-(5-trifluoromethyl-pyridin-2-yloxy)-ethyl]-piperidin-1-yl}-(6-methyl-pyridazin-4-yl)-methanone]
Ki [1]: 5.6 nM

C[C@H](Oc1ncc(F)cn1)[C@H]1CCN(C(=O)C2CCN(c3ccc(C#N)cn3)CC2)C[C@@H]1c1ccc(Cl)cc1 [Example 61, 4-{(3S,4S)-3-(4-Chloro-phenyl)-4-[(S)-1-(5-fluoro-pyrimidin-2-yloxy)-ethyl]-piperidine-1-carbonyl}-3,4,5,6-tetrahydro-2H-[1,2′]bipyridinyl-5′-carbonitrile]
Ki [1]: 1.5 nM

C[C@H](Oc1ccc(Cl)cn1)[C@H]1CCN(C(=O)C2CCN(C(=O)C3(C)CC3)CC2)C[C@@H]1c1ccc(F)c(F)c1 [Example 63, {4-[(3S,4S)-4-[(S)-1-(5-Chloro-pyridin-2-yloxy)-ethyl]-3-(3,4-difluoro-phenyl)-piperidine-1-carbonyl]piperidin-1-yl}-(1-methyl-cyclopropyl)-methanone]
Ki [1]: 3.5 nM

Cc1noc(-c2ccc(C(=O)N3CC[C@H]([C@H](C)Oc4ccc(Cl)cn4)[C@@H](c4ccc(Cl)cc4)C3)cc2)n1 [Example 11, {(3S,4S)-3-(4-Chloro-phenyl)-4-[(S)-1-(5-chloro-pyridin-2-yloxy)-ethyl]-piperidin-1-yl}-[4-(3-methyl-[1,2,4]oxadiazol-5-yl)-phenyl]-methanone]
Ki [1]: 1.8 nM

Cc1noc(-c2ccc(C(=O)N3CC[C@H](COc4ccc(Cl)cn4)[C@@H](c4ccc(F)c(F)c4)C3)cc2)n1 (racemic) [Example 31, [(3SR,4SR)-4-(5-Chloro-pyridin-2-yloxymethyl)-3-(3,4-difluoro-phenyl)-piperidin-1-yl]-[4-(3-methyl-[1,2,4]oxadiazol-5-yl)-phenyl]-methanone]
Ki [1]: 8.3 nM

CC(=O)N(C)C1(c2ccccc2)CCN(CCC[C@]2(c3ccc(Cl)c(Cl)c3)CCCN(C(=O)c3ccccc3)C2)CC1 [SR 142,801, Osanetant]
activity on positive symptoms of schizophrenia ([2]; altered behavior, delusion, hallucinations, extreme emotions, excited motor activity, incoherent speech): active
activity in the treatment of negative symptoms ([2]; depression, anhedonia, social isolation or memory and attention deficits): inactive

CC(Nc1ccc(C#N)cn1)[C@H]1CCN(C(=O)C2CCN(c3ccc(C#N)cn3)CC2)C[C@@H]1c1ccc(Cl)cc1 (mixture of isomers) [Example 68, 4-{(3S,4S)-3-(4-Chloro-phenyl)-4-[(SR)-1-(5-cyano-pyridin-2-ylamino)-ethyl]-piperidine-1-carbonyl}-3,4,5,6-tetrahydro-2H-[1,2′]bipyridinyl-5′-carbonitrile]
Ki [1]: 1.4 nM

C[C@H](Oc1ccc(C(F)(F)F)cc1)[C@H]1CCN(C(=O)C2CCN(c3ccc(C#N)cn3)CC2)C[C@@H]1c1ccc(Cl)cc1 [Example 50, 4-{(3S,4S)-3-(4-Chloro-phenyl)-4-[(S)-1-(4-trifluoromethyl-phenoxy)-ethyl]-piperidine-1-carbonyl}-3,4,5,6-tetrahydro-2H-[1,2′]bipyridinyl-5′-carbonitrile]
Ki [1]: 1.3 nM

C[C@H](Oc1ccc(C#N)cn1)[C@H]1CCN(C(=O)C2CCN(c3ccc(C#N)cn3)CC2)C[C@@H]1c1ccc(Cl)cc1 [Example 27, 4-{(3S,4S)-3-(4-Chloro-phenyl)-4-[(S)-1-(5-cyano-pyridin-2-yloxy)-ethyl]-piperidine-1-carbonyl}-3,4,5,6-tetrahydro-2H-[1,2′]bipyridinyl-5′-carbonitrile]
Ki [1]: 0.3 nM

C[C@H](Oc1ccc(C(F)(F)F)cn1)[C@H]1CCN(C(=O)C2CCN(c3ccc(C#N)cn3)CC2)C[C@@H]1c1ccc(Cl)cc1 [Example 20, 4-{(3S,4S)-3-(4-Chloro-phenyl)-4-[(S)-1-(5-trifluoromethyl-pyridin-2-yloxy)-ethyl]-piperidine-1-carbonyl}-3,4,5,6-tetrahydro-2H-[1,2′]bipyridinyl-5′-carbonitrile]
Ki [1]: 0.2 nM

Cc1noc(-c2ccc(C(=O)N3CC[C@H]([C@H](C)Oc4ccc(C(F)(F)F)cn4)[C@@H](c4ccc(Cl)cc4)C3)cc2)n1 [Example 18, {(3S,4S)-3-(4-Chloro-phenyl)-4-[(S)-1-(5-trifluoromethyl-pyridin-2-yloxy)-ethyl]-piperidin-1-yl}-[4-(3-methyl-[1,2,4]oxadiazol-5-yl)-phenyl]-methanone]
Ki [1]: 1.2 nM

CC1(C(=O)N2CCC(C(=O)N3CC[C@H](COc4ccc(Cl)cn4)[C@@H](c4ccc(F)c(F)c4)C3)CC2)CC1 (racemic) [Example 32, {4-[(3SR,4SR)-4-(5-Chloro-pyridin-2-yloxymethyl)-3-(3,4-difluoro-phenyl)-piperidine-1-carbonyl]-piperidin-1-yl}-(1-methyl-cyclopropyl)-methanone]
Ki [1]: 5.8 nM

C[C@H](Oc1ccc(F)c(F)c1)[C@H]1CCN(C(=O)C2CCN(c3ccc(C#N)cn3)CC2)C[C@@H]1c1ccc(Cl)cc1 [Example 54, 4-{(3S,4S)-3-(4-Chloro-phenyl)-4-[(S)-1-(3,4-difluoro-phenoxy)-ethyl]-piperidine-1-carbonyl}-3,4,5,6-tetrahydro-2H-[1,2′]bipyridinyl-5′-carbonitrile]
Ki [1]: 1.7 nM

Cc1ccc(O[C@@H](C)[C@H]2CCN(C(=O)C3CCN(c4ccc(C#N)cn4)CC3)C[C@@H]2c2ccc(Cl)cc2)nc1 [Example 58, 4-{(3S,4S)-3-(4-Chloro-phenyl)-4-[(S)-1-(5-methyl-pyridin-2-yloxy)-ethyl]piperidine-1-carbonyl}-3,4,5,6-tetrahydro-2H-[1,2′]bipyridinyl-5′-carbonitrile]
Ki [1]: 2 nM

N#Cc1ccc(N2CCC(C(=O)N3CC[C@H](COc4ccc(Cl)cn4)[C@@H](c4ccccc4)C3)CC2)nc1 [Example 47, 4-[(3S,4S)-4-(5-Chloro-pyridin-2-yloxymethyl)-3-phenyl-piperidine-1-carbonyl]-3,4,5,6-tetrahydro-2H-[1,2′]bipyridinyl-5′-carbonitrile]
Ki [1]: 9.9 nM

Cc1ccc(O[C@@H](C)[C@H]2CCN(C(=O)C3CCN(c4ccc(C#N)cn4)CC3)C[C@@H]2c2ccc(Cl)cc2)cc1 [Example 57, 4-[(3S,4S)-3-(4-Chloro-phenyl)-4-((S)-1-p-tolyloxy-ethyl)-piperidine-1-carbonyl]-3,4,5,6-tetrahydro-2H-[1,2′]bipyridinyl-5′-carbonitrile]
Ki [1]: 1.4 nM

Cc1noc(-c2ccc(C(=O)N3CC[C@H]([C@H](C)Oc4ccc(C#N)cn4)[C@@H](c4ccc(Cl)cc4)C3)cc2)n1 [Example 25, 6-((S)-1-{(3S,4S)-3-(4-Chloro-phenyl)-1-[4-(3-methyl-[1,2,4]oxadiazol-5-yl)-benzoyl]-piperidin-4-yl}-ethoxy)-nicotinonitrile]
Ki [1]: 1.5 nM

C[C@H](Oc1ccc(C#N)cn1)[C@H]1CCN(C(=O)N2CCN(S(C)(=O)=O)CC2)C[C@@H]1c1ccc(Cl)cc1 [Example 28, 6-{(S)-1-[(3S,4S)-3-(4-Chloro-phenyl)-1-(4-methanesulfonyl-piperazine-1-carbonyl)-piperidin-4-yl]-ethoxy}-nicotinonitrile]
Ki [1]: 3 nM

Cc1cc(C(=O)N2CC[C@H]([C@H](C)Oc3ccc(Cl)cn3)[C@@H](c3ccc(Cl)cc3)C2)cnn1 [Example 10, {(3S,4S)-3-(4-Chloro-phenyl)-4-[(S)-1-(5-chloro-pyridin-2-yloxy)-ethyl]-piperidin-1-yl}-(6-methyl-pyridazin-4-yl)-methanone]
Ki [1]: 3.6 nM
